# Reference: PubChem BioAssay AID2060623 (Molecular Pharmacology Branch, DTP, NCI, 2025)
# Tested on: 227483-062-R1-J1-PDC complex spheroids with HUVEC/MSC, viability
# Test: Anticancer human tumor 227483-062-R1-J1-PDC patient-derived pancreatic carcinoma cell line growth inhibition [CLK]
# Conditions: for IC50: curve of first compound; for viability, T/C: stronger effect = lower value
# Summary of the method: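 Patient-derived tumor cells grown as complex spheroids with HUVEC endothelial cells and mesenchymal stem cells, treated with drug combinations. Concentrations descend in half-log steps from near clinical Cmax, or from 10 microM if Cmax unknown.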
# 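Note: spheroids exposed to compounds for seven days before readout.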
# 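Throughout, for viability, T/C: percent of DMSO vehicle control luminescence as 100% viability.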
smiles,measurement,setting,value
Nc1ccn(C2OC(CO)C(O)C2(F)F)c(=O)n1 (configuration not stated) + CNC(=O)c1ccc(Nc2nc(OC3CCCC3)c3c(-c4ccc5nc(C)oc5c4)c[nH]c3n2)c(OC)c1,IC50,second compound 0.0316 µM,67.5 nM
same,IC50,second compound 0.1 µM,78.5 nM
same,IC50,second compound 0.316 µM,52.4 nM
same,IC50,second compound 1 µM,< 31.6 nM
same,IC50,second compound 3.16 µM,< 31.6 nM
same,IC50,second compound 10 µM,< 31.6 nM
same,"viability, T/C","second compound 0.0316 µM, first compound 0.0316 µM",77.5%
same,"viability, T/C","second compound 0.0316 µM, first compound 0.1 µM",34.3%
same,"viability, T/C","second compound 0.0316 µM, first compound 0.316 µM",34.2%
same,"viability, T/C","second compound 0.0316 µM, first compound 1 µM",34.4%
same,"viability, T/C","second compound 0.0316 µM, first compound 3.16 µM",28.2%
same,"viability, T/C","second compound 0.0316 µM, first compound 10 µM",20%
same,"viability, T/C","second compound 0.1 µM, first compound 0.0316 µM",93.3%
same,"viability, T/C","second compound 0.1 µM, first compound 0.1 µM",36.2%
same,"viability, T/C","second compound 0.1 µM, first compound 0.316 µM",35.6%
same,"viability, T/C","second compound 0.1 µM, first compound 1 µM",34.2%
same,"viability, T/C","second compound 0.1 µM, first compound 3.16 µM",26.8%
same,"viability, T/C","second compound 0.1 µM, first compound 10 µM",19.3%
same,"viability, T/C","second compound 0.316 µM, first compound 0.0316 µM",62.2%
same,"viability, T/C","second compound 0.316 µM, first compound 0.1 µM",32.6%
same,"viability, T/C","second compound 0.316 µM, first compound 0.316 µM",27.1%
same,"viability, T/C","second compound 0.316 µM, first compound 1 µM",28.9%
same,"viability, T/C","second compound 0.316 µM, first compound 3.16 µM",21.8%
same,"viability, T/C","second compound 0.316 µM, first compound 10 µM",15.8%
same,"viability, T/C","second compound 1 µM, first compound 0.0316 µM",49.2%
same,"viability, T/C","second compound 1 µM, first compound 0.1 µM",28.6%
same,"viability, T/C","second compound 1 µM, first compound 0.316 µM",20.2%
same,"viability, T/C","second compound 1 µM, first compound 1 µM",21.1%
same,"viability, T/C","second compound 1 µM, first compound 3.16 µM",15.5%
same,"viability, T/C","second compound 1 µM, first compound 10 µM",12.6%
same,"viability, T/C","second compound 3.16 µM, first compound 0.0316 µM",29%
same,"viability, T/C","second compound 3.16 µM, first compound 0.1 µM",20.8%
same,"viability, T/C","second compound 3.16 µM, first compound 0.316 µM",19.6%
same,"viability, T/C","second compound 3.16 µM, first compound 1 µM",15.9%
same,"viability, T/C","second compound 3.16 µM, first compound 3.16 µM",13.3%
same,"viability, T/C","second compound 3.16 µM, first compound 10 µM",11%
same,"viability, T/C","second compound 10 µM, first compound 0.0316 µM",23.6%
same,"viability, T/C","second compound 10 µM, first compound 0.1 µM",22%
same,"viability, T/C","second compound 10 µM, first compound 0.316 µM",16.7%
same,"viability, T/C","second compound 10 µM, first compound 1 µM",15.2%
same,"viability, T/C","second compound 10 µM, first compound 3.16 µM",13.6%
same,"viability, T/C","second compound 10 µM, first compound 10 µM",9.42%
